From patent US8236808B2, “Pyrazine derivatives as ENAC blockers” (Novartis AG, priority 2008, dated 2012)
Counter-ions that a name gives are not always drawn.

These molecules were tested against T1, epithelial sodium channel (ENaC) (Homo sapiens, UniProt P37088+P51168+P51170) (assay: Short circuit current (ISC) measurements in human bronchial epithelial cells, inhibition of amiloride-sensitive ISC). Conditions: inhibition of the amiloride-sensitive ISC; HBECs cultured at air-liquid interface, Ussing chamber, compound added to apical chamber.
T1 construct: host or cells: primary human bronchial epithelial cells (HBECs), differentiated at the air-liquid interface
T1 sequence (P37088 1-669): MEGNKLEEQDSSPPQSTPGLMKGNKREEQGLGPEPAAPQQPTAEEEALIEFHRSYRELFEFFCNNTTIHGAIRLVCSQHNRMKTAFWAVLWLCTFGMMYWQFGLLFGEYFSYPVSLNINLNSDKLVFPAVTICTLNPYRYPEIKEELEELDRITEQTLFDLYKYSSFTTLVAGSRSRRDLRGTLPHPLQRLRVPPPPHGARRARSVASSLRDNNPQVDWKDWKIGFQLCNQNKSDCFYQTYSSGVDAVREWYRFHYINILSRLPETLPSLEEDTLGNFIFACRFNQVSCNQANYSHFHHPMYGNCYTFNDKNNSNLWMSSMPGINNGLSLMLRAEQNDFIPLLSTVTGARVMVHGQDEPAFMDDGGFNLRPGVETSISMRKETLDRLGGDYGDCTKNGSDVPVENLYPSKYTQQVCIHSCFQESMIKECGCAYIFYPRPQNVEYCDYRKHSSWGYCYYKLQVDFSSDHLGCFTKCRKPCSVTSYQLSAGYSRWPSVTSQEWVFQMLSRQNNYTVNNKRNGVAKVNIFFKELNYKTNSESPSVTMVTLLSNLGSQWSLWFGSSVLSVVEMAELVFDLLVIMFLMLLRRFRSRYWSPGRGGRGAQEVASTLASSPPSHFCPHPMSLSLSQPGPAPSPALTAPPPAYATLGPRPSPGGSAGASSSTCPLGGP
T1 sequence (P51168 1-640): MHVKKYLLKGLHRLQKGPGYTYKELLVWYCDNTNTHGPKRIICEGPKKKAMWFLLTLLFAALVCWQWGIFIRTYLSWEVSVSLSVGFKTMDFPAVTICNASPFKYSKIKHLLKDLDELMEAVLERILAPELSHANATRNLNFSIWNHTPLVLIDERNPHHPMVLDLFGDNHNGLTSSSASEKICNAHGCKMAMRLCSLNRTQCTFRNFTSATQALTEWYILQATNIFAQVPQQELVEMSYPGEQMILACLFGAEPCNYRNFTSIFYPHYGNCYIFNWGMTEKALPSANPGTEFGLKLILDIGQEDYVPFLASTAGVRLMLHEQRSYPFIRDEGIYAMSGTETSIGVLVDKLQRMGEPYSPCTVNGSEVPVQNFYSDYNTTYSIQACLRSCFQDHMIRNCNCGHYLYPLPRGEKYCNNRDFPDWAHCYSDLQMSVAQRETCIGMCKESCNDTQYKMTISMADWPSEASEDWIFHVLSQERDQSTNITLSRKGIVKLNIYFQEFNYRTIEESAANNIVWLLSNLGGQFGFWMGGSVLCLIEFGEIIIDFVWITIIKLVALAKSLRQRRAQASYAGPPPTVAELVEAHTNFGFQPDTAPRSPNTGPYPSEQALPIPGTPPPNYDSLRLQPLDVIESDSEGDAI
T1 sequence (P51170 1-649): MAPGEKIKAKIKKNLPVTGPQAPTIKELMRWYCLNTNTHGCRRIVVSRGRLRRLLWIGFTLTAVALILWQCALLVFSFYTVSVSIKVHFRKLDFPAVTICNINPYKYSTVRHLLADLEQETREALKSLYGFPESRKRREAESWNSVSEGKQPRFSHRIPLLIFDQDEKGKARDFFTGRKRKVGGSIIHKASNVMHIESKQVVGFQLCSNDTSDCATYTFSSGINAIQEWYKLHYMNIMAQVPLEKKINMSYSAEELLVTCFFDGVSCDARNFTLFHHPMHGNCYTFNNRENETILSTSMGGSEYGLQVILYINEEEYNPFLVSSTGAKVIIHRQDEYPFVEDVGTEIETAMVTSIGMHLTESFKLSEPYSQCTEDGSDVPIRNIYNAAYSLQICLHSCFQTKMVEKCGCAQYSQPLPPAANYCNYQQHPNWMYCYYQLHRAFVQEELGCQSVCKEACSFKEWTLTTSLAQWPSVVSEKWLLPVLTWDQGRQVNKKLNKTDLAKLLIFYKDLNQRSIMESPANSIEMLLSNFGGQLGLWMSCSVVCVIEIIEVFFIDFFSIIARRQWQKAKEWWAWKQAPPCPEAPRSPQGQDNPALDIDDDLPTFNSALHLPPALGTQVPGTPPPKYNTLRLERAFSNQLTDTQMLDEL
Type: cell-based
Method: Compounds of formula (I), hereinafter referred to alternatively as “agents of the invention”, are useful as pharmaceuticals. In particular, the compounds have good ENaC blocker activity and may be tested in the following assays.
Human Bronchial Epithelial cells (HBECs) (Cambrex) were cultured under air-liquid interface conditions to provide a well differentiated mucociliary phenotype.
HBECs were cultured using a modification of the method described by Gray and colleagues (Gray et al., 1996). Cells were seeded in plastic T-162 flasks and were grown in bronchial epithelial cell growth medium (BEGM; Cambrex) supplemented with bovine pituitary extract (52 μg/mL), hydrocortisone (0.5 μg/mL), human recombinant epidermal growth factor (0.5 ng/mL), epinephrine (0.5 μg/mL), transferrin (10 μg/mL), insulin (5 μg/mL), retinoic acid (0.1 μg/mL), triiodothyronine ([…]), gentamycin (50 μg/mL) and amphotericin B (50 ng/mL). Medium was changed every 48 hours until cells were 90% confluent. Cells were then passaged and seeded (8.25×10^5 cells/insert) on polycarbonate Snapwell inserts (Costar) in differentiation media containing 50% DMEM in BEGM with the same supplements as above but without triiodothyronine and a final retinoic acid concentration of 50 nM (all-trans retinoic acid). Cells were maintained submerged for the first 7 days in culture, after which time they were exposed to an apical air interface for the remainder of the culture period. At this time, media was changed to DMEM:F12 media containing 2% v/v Ultroser G for the remainder of culture. Amphotericin B was removed from all media 3 feeds prior to use in the Ussing Chambers. Cells were used between days 7 and 21 after establishment of the apical-air interface. At all stages of culture, cells were maintained at 37° C. in 5% CO2 in an air incubator.
Snapwell inserts were mounted in Vertical Diffusion Chambers (Costar) and were bathed with continuously gassed Ringer solution (5% CO2 in O2; pH 7.4) maintained at 37° C. containing (in mM): 120 NaCl, 25 NaHCO3, 3.3 KH2PO4, 0.8 K2HPO4, 1.2 CaCl2, 1.2 MgCl2, and 10 glucose. The solution osmolarity was between 280 and 300 mOsmol/kg H2O for all physiological salt solutions used. Cells were voltage clamped to 0 mV (model EVC4000; WPI). RT was measured by applying a 1- or 2-mV pulse at 30-s intervals and calculating RT by Ohm's law. Data were recorded using a PowerLab workstation (ADInstruments).
Test compounds were prepared as a 10 mM stock solution in DMSO (95%). Serial 3-fold dilutions were freshly prepared in an appropriate vehicle (distilled H2O or Ringers solution). The initial concentration was added to the apical chamber as a 1000× concentrate in 5 μL, resulting in a final 1× concentration the 5 mL volume of the Ussing chamber. Subsequent additions of compound were added in a 3.3 μL volume of the 1000× serially diluted stock solution. At the completion of the concentration-response experiment, amiloride (10 μM) was added into the apical chamber to enable the total amiloride-sensitive current to be measured. An amiloride control IC50 was established at the start of each experiment.
Results are expressed as the mean % inhibition of the amiloride-sensitive ISC. Concentration-response curves were plotted and IC50 values generated using GraphPad Prism 3.02. Cell inserts were typically run in duplicate and the IC50 calculated on the mean % inhibition data.

| SMILES | IC50 |
| --- | --- |
| C[N+]1(C)CCC[C@@H]1CNC(=O)c1nc(Cl)c(N)nc1N [Example 11, (R)-2-{[(3,5-Diamino-6-chloro-pyrazine-2-carbonyl)-amino]-methyl}-1,1-dimethyl-pyrrolidinium iodide] | 5320 nM |
| C[N+](C)(CCCCNS(=O)(=O)c1ccc(Cl)cc1)CCNC(=O)c1nc(Cl)c(N)nc1N [Example 100, [4-(4-Chloro-benzenesulfonylamino)-butyl]-{2-[(3,5-diamino-6-chloro-pyrazine-2-carbonyl)-amino]-ethyl}-dimethyl-ammonium bromide] | 290 nM |
| C[N+](C)(CCCNC(=O)Cc1ccc(OCc2ccccc2)cc1)CCNC(=O)c1nc(Cl)c(N)nc1N [Example 50, {3-[2-(4-Benzyloxy-phenyl)-acetylamino]-propyl}-{2-[(3,5-diamino-6-chloro-pyrazine-2-carbonyl)-amino]-ethyl}-dimethyl-ammonium bromide] | 240 nM |
| C[N+](CCCc1ccc(OCC(O)CO)cc1)(CCCc1ccc(OCC(O)CO)cc1)CCNC(=O)c1nc(Cl)c(N)nc1N (centres unmarked) [Example 125, {2-[(3,5-Diamino-6-chloro-pyrazine-2-carbonyl)-amino]-ethyl}-bis-{3-[4-(2,3-dihydroxy-propoxy)-phenyl]-propyl}-methyl-ammonium trifluoroacetate] | 240 nM |
| CCOc1ccc(NC(=O)NCCCC[N+](C)(CCCc2ccc(OC)cc2)CCNC(=O)c2nc(Cl)c(N)nc2N)cc1Cl (centres unmarked) [Example 26, {4-[3-(3-Chloro-4-ethoxy-phenyl)-ureido]-butyl}-{2-[(3,5-diamino-6-chloro-pyrazine-2-carbonyl)-amino]-ethyl}-[3-(4-methoxy-phenyl)-propyl]-methyl-ammonium bromide] | 12 nM |
| C[N+](C)(CCCCCNC(=O)Cc1ccc(OCc2ccccc2)cc1)CCNC(=O)c1nc(Cl)c(N)nc1N [Example 78, {5-[2-(4-Benzyloxy-phenyl)-acetylamino]-pentyl}-{2-[(3,5-diamino-6-chloro-pyrazine-2-carbonyl)-amino]-ethyl}-dimethyl-ammonium bromide] | 62 nM |
| COc1ccc(CCC[N+](CCCc2ccc(OC)cc2)(CCNC(=O)c2nc(Cl)c(N)nc2N)CC(N)=O)cc1 [Example 22, Carbamoylmethyl-{2-[(3,5-diamino-6-chloro-pyrazine-2-carbonyl)-amino]-ethyl}-bis-[3-(4-methoxy-phenyl)-propyl]-ammonium trifluoroacetate] | 51 nM |
| C[N+](C)(CCNC(=O)CCc1ccc(F)cc1)CCNC(=O)c1nc(Cl)c(N)nc1N [Example 38, {2-[(3,5-Diamino-6-chloro-pyrazine-2-carbonyl)-amino]-ethyl}-{2-[3-(4-fluoro-phenyl)-propionylamino]-ethyl}-dimethyl-ammonium hexafluorophosphate] | 810 nM |
| C[N+](C)(CCCCCNS(=O)(=O)c1ccc(Cl)cc1)CCNC(=O)c1nc(Cl)c(N)nc1N [Example 94, [5-(4-Chloro-benzenesulfonylamino)-pentyl]-{2-[(3,5-diamino-6-chloro-pyrazine-2-carbonyl)-amino]-ethyl}-dimethyl-ammonium bromide] | 250 nM |
| COc1ccc2c(c1)CCCC2CC(=O)NCC[N+](C)(C)CCNC(=O)c1nc(Cl)c(N)nc1N (centres unmarked) [Example 35, {2-[(3,5-Diamino-6-chloro-pyrazine-2-carbonyl)-amino]ethyl}-{2-[2-(6-methoxy-1,2,3,4-tetrahydro-naphthalen-1-yl)-acetylamino]-ethyl}-dimethyl-ammonium hexafluorophosphate] | 410 nM |
| C[N+](C)(C)C1(CNC(=O)c2nc(Cl)c(N)nc2N)CCCC1 [Example 9, (1-{[(3,5-Diamino-6-chloro-pyrazine-2-carbonyl)-amino]-methyl}-cyclopentyl)-trimethyl-ammonium iodide] | 3460 nM |
| C[N+](C)(CCCc1ccc(OCCCc2ccc(OC[C@@H](O)CO)cc2)cc1)CCNC(=O)c1nc(Cl)c(N)nc1N [Example 29, {2-[(3,5-Diamino-6-chloro-pyrazine-2-carbonyl)-amino]-ethyl}-[3-(4-{3-[4-((S)-2,3-dihydroxy-propoxy)-phenyl]-propoxy}-phenyl)-propyl]-dimethyl-ammonium bromide] | 25 nM |
| CCC[C@@H](CNC(=O)c1nc(Cl)c(N)nc1N)[N+](C)(C)CCCc1ccc(OC[C@@H](O)CO)cc1 [Example 124, ((S)-1-{[(3,5-Diamino-6-chloro-pyrazine-2-carbonyl)-amino]-methyl}-butyl)-{3-[4-((S)-2,3-dihydroxy-propoxy)-phenyl]-propyl}-dimethyl-ammonium trifluoroacetate] | 25 nM |
| CCC[C@@H](CNC(=O)c1nc(Cl)c(N)nc1N)[N+](C)(C)C [Example 5, ((S)-1-{[(3,5-Diamino-6-chloro-pyrazine-2-carbonyl)-amino]-methyl}-butyl)-trimethyl-ammonium trifluoroacetate] | 20 nM |
